Key:
Assay type in all cases: cell-based
Aβ42 [1] = experiment: Screening for γ-secretase-modulating activity, Method 2: Aβ42 Alphalisa in supernatant of SKNBE2 cells carrying APP 695 wild type (Table 12c); details: Method 2, Table 12c, incubated overnight
Procedure: (§1) Screening was carried out using SKNBE2 cells carrying the APP 695—wild type, grown in Dulbecco's Modified Eagle's Medium/Nutrient mixture F-12 (DMEM/NUT-mix F-12) (HAM) provided by Invitrogen (cat no. 10371-029) containing 5% Serum/Fe supplemented with 1% non-essential amino acids, 1-glutamine 2 mM, Hepes 15 mM, penicillin 50 U/ml (units/ml) en streptomycin 50 μg/ml. Cells were grown to near confluency.
(§2) The screening was performed using a modification of the assay as described in Citron et al (1997) Nature Medicine 3: 67. Briefly, cells were plated in a 384-well plate at 10^4 cells/well in Ultraculture (Lonza, BE12-725F) supplemented with 1% glutamine (Invitrogen, 25030-024), 1% non-essential amino acid (NEAA), penicillin 50 U/ml en streptomycin 50 μg/ml in the presence of test compound at different test concentrations. The cell/compound mixture was incubated overnight at 37° C., 5% CO2, The next day the media were assayed by two sandwich immuno-assays, for Aβ42 and Aβtotal.
(§3) Aβtotal and Aβ42 concentrations were quantified in the cell supernatant using the Aphalisa technology (Perkin Elmer). Alphalisa is a sandwich assay using biotinylated antibody attached to streptavidin coated donorbeads and antibody conjugated to acceptor beads. In the presence of antigen, the beads come into close proximity. The excitation of the donor beads provokes the release of singlet oxygen molecules that trigger a cascade of energy transfer in the acceptor beads, resulting in light emission. To quantify the amount of Aβ42 in the cell supernatant, monoclonal antibody specific to the C-terminus of Aβ42 (JRF/cAβ42/26) was coupled to the receptor beads and biotinylated antibody specific to the N-terminus of Aβ (JRF/AβN/25) was used to react with the donor beads. To quantify the amount of Aβtotal in the cell supernatant, monoclonal antibody specific to the N-terminus of Aβ (JRF/AβN/25) was coupled to the receptor beads and biotinylated antibody specific to the mid region of Aβ (biotinylated 4G8) was used to react with the donor beads.
(§4) To obtain the values reported in Table 12c, the data are calculated as percentage of the maximum amount of amyloid Beta 42 measured in the absence of the test compound. The sigmoidal dose response curves were analyzed using non-linear regression analysis with percentage of the control plotted against the log concentration of the compound. A 4-parameter equation was used to determine the IC50.

Aβtotal [2] = experiment: Screening for γ-secretase-modulating activity, Method 2: Aβtotal Alphalisa in supernatant of SKNBE2 cells carrying APP 695 wild type (Table 12c); details: Method 2, Table 12c, incubated overnight
Procedure: as §1, §2, §3, §4

Aβtotal [3] = experiment: Screening for γ-secretase-modulating activity, Method 1: Aβtotal sandwich ELISA in supernatant of SKNBE2 cells carrying APP 695 wild type (Tables 12a, 12b)
Procedure: as §1, with “Gibco” for “Invitrogen”, “31330-38)” for “10371-029)”, “acids.” for “acids, 1-glutamine 2 mM, Hepes 15 mM, penicillin 50 U/ml (units/ml) en streptomycin 50 μg/ml.”
(§5) The screening was performed using the assay as described in Citron et al (1997) Nature Medicine 3: 67. Briefly, cells were plated in a 96-well plate at about 10^5 cells/ml one day prior to addition of compounds. Compounds were added to the cells in Ultraculture (Lonza, BE12-725F) supplemented with 1% glutamine (Invitrogen, 25030-024) for 18 hours. The media were assayed by two sandwich ELISAs, for Aβ42 and Aβtotal. Toxicity of the compounds was assayed by WST-1 cell proliferation reagent (Roche, 1 644 807) according to the manufacturer's protocol.
To quantify the amount of Aβtotal in the cell supernatant, samples and standards were added to a 6E10-coated plate. The plate was allowed to incubate overnight at 4° C. in order to allow formation of the antibody-amyloid complex. Following this incubation and subsequent wash steps a selective anti-Aβ-antibody conjugate (biotinylated 4G8) was added and incubated for a minimum of 1 hour in order to allow formation of the antibody-Amyloid-antibody-complex. After incubation and appropriate wash steps, a Streptavidine-Peroxidase-Conjugate was added, followed 30 minutes later by an addition of Quanta Blu fluorogenic peroxidase substrate according to the manufacturer's instructions (Pierce Corp., Rockford, Ill.).
(§6) To obtain the values reported in Table 12a, the sigmoidal dose response curves were analysed by computerised curve-fitting, with percent of inhibition plotted against compound concentration. A 4-parameter equation (model 205) in XLfit was used to determine the IC50. The top and the bottom of the curve were fixed to 100 and 0, respectively, and the hill slope was fixed to 1. The IC50 represents the concentration of a compound that is required for inhibiting a biological effect by 50% (Here, it is the concentration where Aβ peptide level is reduced by 50%).
as §4, with “12b,” for “12c,”, “IC50. The values reported in Table 12b are averaged IC50 values.” for “IC50.”

Aβ42 [4] = experiment: Screening for γ-secretase-modulating activity, Method 1: Aβ42 sandwich ELISA in supernatant of SKNBE2 cells carrying APP 695 wild type (Tables 12a, 12b)
Procedure: as §1, with “Gibco” for “Invitrogen”, “31330-38)” for “10371-029)”, “acids.” for “acids, 1-glutamine 2 mM, Hepes 15 mM, penicillin 50 U/ml (units/ml) en streptomycin 50 μg/ml.”
as §5
To quantify the amount of Aβ42 in the cell supernatant, commercially available Enzyme-Linked-Immunosorbent-Assay (ELISA) kits were used (Innotest® β-Amyloid(1-42), Innogenetics N.V., Ghent, Belgium). The Aβ42 ELISA was performed essentially according to the manufacturer's protocol. Briefly, the standards (dilutions of synthetic Aβ1-42) were prepared in polypropylene Eppendorf with final concentrations of 8000 down to 3.9 pg/ml (1/2 dilution step). Samples, standards and blanks (100 μl) were added to the anti-Aβ42-coated plate supplied with the kit (the capture antibody selectively recognizes the C-terminal end of the antigen). The plate was allowed to incubate 3 h at 25° C. in order to allow formation of the antibody-amyloid complex. Following this incubation and subsequent wash steps a selective anti-Aβ-antibody conjugate (biotinylated 3D6) was added and incubated for a minimum of 1 hour in order to allow formation of the antibody-Amyloid-antibody-complex. After incubation and appropriate wash steps, a Streptavidine-Peroxidase-Conjugate was added, followed 30 minutes later by an addition of 3,3′,5,5′-tetramethylbenzidine (TMB)/peroxide mixture, resulting in the conversion of the substrate into a coloured product. This reaction was stopped by the addition of sulfuric acid (0.9 N) and the colour intensity was measured by means of photometry with an ELISA-reader with a 450 nm filter.
as §6
as §4, with “12b,” for “12c,”, “IC50. The values reported in Table 12b are averaged IC50 values.” for “IC50.”

[5] = Table 12b, Method 1, SKNBE2 cells carrying APP 695 wild type, cell supernatant ELISA, averaged IC50 values
[6] = Table 12b, Method 1, SKNBE2 cells carrying APP 695 wild type, cell supernatant ELISA, averaged IC50 values, percentage of control vs log concentration
[7] = Method 1, Table 12a, SKNBE2 cells carrying APP 695 wild type, compounds 18 hours, ELISA, curve top and bottom fixed to 100 and 0, hill slope 1
[8] = Homo sapiens, Table 12b, Method 1, SKNBE2 cells carrying APP 695 wild type, cell supernatant ELISA, averaged IC50 values
[9] = Homo sapiens, Table 12b, Method 1, SKNBE2 cells carrying APP 695 wild type, cell supernatant ELISA, averaged IC50 values, percentage of control vs log concentration
[10] = Homo sapiens, Method 1, Table 12a, SKNBE2 cells carrying APP 695 wild type, compounds 18 hours, ELISA, curve top and bottom fixed to 100 and 0, hill slope 1

Row | Structure (SMILES) | IC50 (Aβtotal [3]; [8]) [nM] | IC50 (Aβ42 [4]; [9]) [nM] | IC50 (Aβtotal [3]; [10]) [nM] | IC50 (Aβ42 [4]; [10]) [nM] | other results
1 | Cc1cn(-c2ccc(Nc3cc(Cl)cn4cc(C5CCOCC5)nc34)cc2F)cn1 [Compound 150] |  |  |  |  | IC50 (Aβ42 [1]): 200 nM; IC50 (Aβtotal [2]): > 10000 nM
2 | COc1c(-c2ccc(F)cc2)nc2c(Nc3ccc(-n4cnc(C)c4)c(F)c3)cccn12 [Compound 112] |  |  |  |  | IC50 (Aβ42 [1]): 107 nM; IC50 (Aβtotal [2]): > 10000 nM
3 | COc1ccccc1-c1cc(Nc2ccc(-n3cnc(C)c3)c(OC)c2)c2nc(C)cn2n1 [Compound 161] |  |  |  |  | IC50 (Aβ42 [1]): 132 nM; IC50 (Aβtotal [2]): > 10000 nM
4 | COc1cc(Nc2cccn3c(CN(C)C)c(-c4ccccc4Cl)nc23)ccc1-n1cnc(C)n1 [Compound 126] |  |  |  |  | IC50 (Aβ42 [1]): 52 nM; IC50 (Aβtotal [2]): > 10000 nM
5 | COc1nc(Nc2cccn3cc(C4CCOCC4)nc23)ccc1-n1cnc(C)c1 [Compound 143] |  |  |  |  | IC50 (Aβ42 [1]): 60 nM; IC50 (Aβtotal [2]): 3390 nM
6 | COc1cc(Nc2cccn3cc(CN4CCCCC4)nc23)ccc1-n1cnc(C)c1 [Compound 55] |  |  |  |  | IC50 (Aβtotal [3]; [5]): > 3020 nM; IC50 (Aβ42 [4]; [6]): 1290 nM
7 | CCCCCCc1cnc2c(Nc3ccc(-n4cnc(C)c4)c(OC)c3)cccn12 [Compound 59] |  |  |  |  | IC50 (Aβtotal [3]; [7]): > 3000 nM; IC50 (Aβtotal [3]; [5]): > 3020 nM; IC50 (Aβ42 [4]; [7]): 123 nM; IC50 (Aβ42 [4]; [6]): 145 nM
8 | COc1cc(Nc2cccn3cc(-c4ccncc4)nc23)ccc1-n1cnc(C)c1 [Compound 43] | > 3020 | > 3020 |  |  | 
9 | COc1cccc(-c2nc3c(Nc4ccc(-n5cnc(C)n5)c(OC)c4)cccn3c2C)c1 [Compound 67] | > 3020 | 40 | > 3000 | 51 | 
10 | COc1cc(Nc2cc(C(F)(F)F)cn3cc(C(=O)O)nc23)ccc1-n1cnc(C)c1 [Compound 156] |  |  |  |  | IC50 (Aβtotal [3]; [5]): > 3020 nM; IC50 (Aβ42 [4]; [6]): > 3020 nM
11 | COc1cc(Nc2cccn3cc(-c4ccc(F)cc4)nc23)ccc1-n1ncnc1C [Compound 45] | > 5010 | 200 | > 5000 | 232 | 
12 | COc1cc(Nc2cccn3cc(-c4ccccc4C(F)(F)F)nc23)ccc1-n1cnc(C)c1 [Compound 47] | > 3020 | 31 | > 3000 | 31 | 
13 | COc1ccc(-c2cn3cccc(Nc4ccc(-n5cnc(C)c5)c(OC)c4)c3n2)cc1 [Compound 36] | > 3020 | 60 | > 3000 | 64 | 
14 | COc1cc(Nc2cc(C(F)(F)F)nn3cc(C)nc23)ccc1-n1cnc(C)c1 [Compound 164] |  |  |  |  | IC50 (Aβtotal [3]; [5]): > 10000 nM; IC50 (Aβ42 [4]; [6]): 178 nM
15 | COc1cc(Nc2cccn3cc(CN4CCOCC4)nc23)ccc1-n1cnc(C)c1 [Compound 56] | > 10000 | 204 | > 10000 | 601 | 
16 | CCCCc1nc2c(Nc3ccc(-n4cnc(C)c4)c(OC)c3)cccn2c1CCC [Compound 11] |  |  |  |  | IC50 (Aβtotal [3]; [7]): > 3000 nM; IC50 (Aβtotal [3]; [5]): > 3020 nM; IC50 (Aβ42 [4]; [7]): 39 nM; IC50 (Aβ42 [4]; [6]): 35 nM

Row | Structure (SMILES) | IC50 (Aβtotal [3]; [8]) [nM] | IC50 (Aβ42 [4]; [9]) [nM] | IC50 (Aβtotal [3]; [10]) [nM] | IC50 (Aβ42 [4]; [10]) [nM] | other results
17 | COc1cc(Nc2cc(C(F)(F)F)cn3cc(COc4ccc(F)cc4)nc23)ccc1-n1cnc(C)n1 [Compound 147] | > 3020 | 42 |  |  | 
18 | COc1cc(Nc2cccn3cc(-c4ccccc4F)nc23)ccc1-n1cnc(C)c1 [Compound 88] | > 10000 | 174 | > 3000 | 184 | 
19 | COc1cc(Nc2cccn3c(-c4cccc(-c5ccccc5)c4)cnc23)ccc1-n1cnc(C)c1 [Compound 61] | > 10000 | 437 | > 10000 | 423 | 
20 | COc1cc(Nc2cccn3cc(-c4ccc(F)cc4)nc23)ccc1-n1ccnc1C [Compound 21] | > 5010 | 204 | > 5000 | 263 | 
21 | COc1cccc(-c2nc3c(Nc4ccc(-n5ccnc5C)cc4)cccn3c2C)c1 [Compound 65] | 17800 | 661 | 27200 | 782 | 
22 | COc1cc(Nc2cccn3c(-c4ccccc4)c(-c4ccccc4)nc23)ccc1-n1cnc(C)c1 [Compound 13] | > 3020 | 87 | > 3000 | 89 | 
23 | COc1cc(Nc2cccn3cc(-c4ccc(F)cc4)nc23)ccc1-n1cc(C)nc1C [Compound 20] | 5750 | 871 |  |  | 
24 | CCCc1c(-c2ccc(F)cc2)nc2c(Nc3ccc(-n4cnc(C)c4)c(OC)c3)cccn12 [Compound 24] |  |  |  |  | IC50 (Aβtotal [3]; [7]): > 1000 nM; IC50 (Aβtotal [3]; [5]): > 10000 nM; IC50 (Aβ42 [4]; [7]): 24 nM; IC50 (Aβ42 [4]; [6]): 20 nM
25 | COc1cc(Nc2cccn3c(CO)c(-c4ccc(F)cc4)nc23)ccc1-n1cnc(C)c1 [Compound 101] | > 1000 | 13 |  |  | 
26 | COc1cc(Nc2cccn3c(I)c(-c4ccc(F)cc4)nc23)ccc1-n1cnc(C)c1 [Compound 57] | > 3020 | 51 | > 1000 | 58 | 
27 | Cc1ncn(-c2ccc(Nc3cccn4c(C)c(-c5ccccc5Cl)nc34)c(F)c2)n1 [Compound 133] | > 3020 | 468 |  |  | 
28 | COc1cccc(-c2nc3c(Nc4ccc(-n5cnc(C)c5)cc4)cccn3c2C)c1 [Compound 64] | > 3020 | 17 | > 3000 | 13 | 
29 | COc1cc(Nc2cc(C(F)(F)F)cn3cc(Cc4ccc(F)cc4)nc23)ccc1-n1cnc(C)n1 [Compound 146] |  |  |  |  | IC50 (Aβtotal [3]; [5]): > 3020 nM; IC50 (Aβ42 [4]; [6]): 32 nM
30 | COc1cc(Nc2cccn3cc(C(C)(C)C)nc23)ccc1-n1cnc(C)c1 [Compound 9] | > 10000 | 282 | > 10000 | 384 | 
31 | COc1cc(Nc2cccn3cc(-c4cccnc4)nc23)ccc1-n1cnc(C)c1 [Compound 42] | > 10000 | 427 | > 10000 | 430 | 
